Measurements published in the supplement of paper PMC7661543.
± gives the standard deviation of the averaged measurements.

tested on: SKBR3; assay: relative cell number vs DMSO control (72 h) (% of DMSO); higher = less growth inhibition (more cells); settings: sgRNA knockout: sgNT, 10 nM
Protocol: (§1)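 QMAP-Seq: a pool of 5 breast cancer cell lines (ZR-75-1, SKBR3, HCC-38, MDA-MB-231, BT-20), each carrying 12 doxycycline-inducible Cas9 sgRNA perturbations (11 knockouts plus non-targeting sgNT), was treated with compounds for 72 h at four 10-fold doses (10 nM-10 uM or 1 nM-1 uM range). Barcodes were amplified and sequenced, and cell number was interpolated from 293T spike-in standard curves. The result is expressed as % of the median of DMSO wells. Two biological replicates.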

| SMILES | relative cell number |
| --- | --- |
| O=C(c1cc(Cc2n[nH]c(=O)c3ccccc23)ccc1F)N1CCN(C(=O)C2CC2)CC1 [Olaparib] | 87.7 ± 1.6 |
| O=C(O)C(Cc1c[nH]c2ccccc12)N1C(=O)c2ccccc2C1=O (stereo not given) [RG108] | 97.1 ± 11 |
| CN(C)c1cc(NC(=O)CNC(C)(C)C)c(O)c2c1C[C@H]1C[C@H]3[C@H](N(C)C)C(O)=C(C(N)=O)C(=O)[C@@]3(O)C(O)=C1C2=O [Tigecycline] | 92.5 ± 19 |
| Nc1ccccc1NC(=O)c1ccc(CNC(=O)OCc2cccnc2)cc1 [Entinostat] | 76.3 ± 10 |
| Cn1c(CCCC(=O)O)nc2cc(N(CCCl)CCCl)ccc21 [Bendamustine] | 86.7 ± 9.2 |
| COc1cc2nc(N3CCCN(C)CC3)nc(NC3CCN(Cc4ccccc4)CC3)c2cc1OC | 98.3 ± 25 |
| COC(=O)/C=C/C(=O)OC [DimethylFumarate] | 112 ± 23 |
| CCN1CCN(c2ccc(Nc3cc(N(C)C(=O)Nc4c(Cl)c(OC)cc(OC)c4Cl)ncn3)cc2)CC1 [BGJ398] | 99.1 ± 6.7 |
| O=c1ncccn1[C@@H]1O[C@H](CO)[C@@H](O)[C@H]1O [Zebularine] | 98.7 ± 28 |
| C[C@H]1CCC/C=C/[C@@H]2C[C@H](O)C[C@H]2[C@H](O)/C=C/C(=O)O1 [BrefeldinA] | 89.9 ± 43 |
| CS(=O)(=O)CCNCc1ccc(-c2ccc3ncnc(Nc4ccc(OCc5cccc(F)c5)c(Cl)c4)c3c2)o1 [Lapatinib] | 77.6 ± 11 |

same assay, conditions: sgRNA knockout: sgNT, 100 nM

| SMILES | relative cell number |
| --- | --- |
| O=C(c1cc(Cc2n[nH]c(=O)c3ccccc23)ccc1F)N1CCN(C(=O)C2CC2)CC1 [Olaparib] | 111 ± 9.3 |
| O=C(O)C(Cc1c[nH]c2ccccc12)N1C(=O)c2ccccc2C1=O (stereo not given) [RG108] | 64.7 ± 21 |
| CN(C)c1cc(NC(=O)CNC(C)(C)C)c(O)c2c1C[C@H]1C[C@H]3[C@H](N(C)C)C(O)=C(C(N)=O)C(=O)[C@@]3(O)C(O)=C1C2=O [Tigecycline] | 69.1 ± 4.5 |
| Nc1ccccc1NC(=O)c1ccc(CNC(=O)OCc2cccnc2)cc1 [Entinostat] | 102 ± 18 |
| Cn1c(CCCC(=O)O)nc2cc(N(CCCl)CCCl)ccc21 [Bendamustine] | 115 ± 21 |
| COc1cc2nc(N3CCCN(C)CC3)nc(NC3CCN(Cc4ccccc4)CC3)c2cc1OC | 93.735 ± 0.032 |
| COC(=O)/C=C/C(=O)OC [DimethylFumarate] | 98.3 ± 3 |
| CCN1CCN(c2ccc(Nc3cc(N(C)C(=O)Nc4c(Cl)c(OC)cc(OC)c4Cl)ncn3)cc2)CC1 [BGJ398] | 106 ± 32 |
| O=c1ncccn1[C@@H]1O[C@H](CO)[C@@H](O)[C@H]1O [Zebularine] | 83.6 ± 30 |
| C[C@H]1CCC/C=C/[C@@H]2C[C@H](O)C[C@H]2[C@H](O)/C=C/C(=O)O1 [BrefeldinA] | 17.7 ± 11 |
| CS(=O)(=O)CCNCc1ccc(-c2ccc3ncnc(Nc4ccc(OCc5cccc(F)c5)c(Cl)c4)c3c2)o1 [Lapatinib] | 73.9 ± 0.55 |

same assay, conditions: sgRNA knockout: sgNT, 1000 nM

| SMILES | relative cell number |
| --- | --- |
| O=C(c1cc(Cc2n[nH]c(=O)c3ccccc23)ccc1F)N1CCN(C(=O)C2CC2)CC1 [Olaparib] | 85.4 ± 11 |
| O=C(O)C(Cc1c[nH]c2ccccc12)N1C(=O)c2ccccc2C1=O (stereo not given) [RG108] | 81 ± 16 |
| CN(C)c1cc(NC(=O)CNC(C)(C)C)c(O)c2c1C[C@H]1C[C@H]3[C@H](N(C)C)C(O)=C(C(N)=O)C(=O)[C@@]3(O)C(O)=C1C2=O [Tigecycline] | 104 ± 33 |
| Nc1ccccc1NC(=O)c1ccc(CNC(=O)OCc2cccnc2)cc1 [Entinostat] | 30.3 ± 5.2 |
| Cn1c(CCCC(=O)O)nc2cc(N(CCCl)CCCl)ccc21 [Bendamustine] | 118 ± 21 |
| COc1cc2nc(N3CCCN(C)CC3)nc(NC3CCN(Cc4ccccc4)CC3)c2cc1OC | 75 ± 25 |
| COC(=O)/C=C/C(=O)OC [DimethylFumarate] | 86.2 ± 8.6 |
| CCN1CCN(c2ccc(Nc3cc(N(C)C(=O)Nc4c(Cl)c(OC)cc(OC)c4Cl)ncn3)cc2)CC1 [BGJ398] | 67.6 ± 6.6 |
| O=c1ncccn1[C@@H]1O[C@H](CO)[C@@H](O)[C@H]1O [Zebularine] | 83.8 ± 14 |
| C[C@H]1CCC/C=C/[C@@H]2C[C@H](O)C[C@H]2[C@H](O)/C=C/C(=O)O1 [BrefeldinA] | 5.96 ± 2.5 |
| CS(=O)(=O)CCNCc1ccc(-c2ccc3ncnc(Nc4ccc(OCc5cccc(F)c5)c(Cl)c4)c3c2)o1 [Lapatinib] | 64.9 ± 19 |

same assay, conditions: sgRNA knockout: sgNT, 10000 nM

| SMILES | relative cell number |
| --- | --- |
| O=C(c1cc(Cc2n[nH]c(=O)c3ccccc23)ccc1F)N1CCN(C(=O)C2CC2)CC1 [Olaparib] | 48.7 ± 9.5 |
| O=C(O)C(Cc1c[nH]c2ccccc12)N1C(=O)c2ccccc2C1=O (stereo not given) [RG108] | 73.2 ± 5.8 |
| CN(C)c1cc(NC(=O)CNC(C)(C)C)c(O)c2c1C[C@H]1C[C@H]3[C@H](N(C)C)C(O)=C(C(N)=O)C(=O)[C@@]3(O)C(O)=C1C2=O [Tigecycline] | 65.6 ± 5.3 |
| Nc1ccccc1NC(=O)c1ccc(CNC(=O)OCc2cccnc2)cc1 [Entinostat] | 5.86 ± 2 |
| Cn1c(CCCC(=O)O)nc2cc(N(CCCl)CCCl)ccc21 [Bendamustine] | 109 ± 44 |
| COc1cc2nc(N3CCCN(C)CC3)nc(NC3CCN(Cc4ccccc4)CC3)c2cc1OC | 5.97 ± 3.4 |
| COC(=O)/C=C/C(=O)OC [DimethylFumarate] | 78.2 ± 16 |
| CCN1CCN(c2ccc(Nc3cc(N(C)C(=O)Nc4c(Cl)c(OC)cc(OC)c4Cl)ncn3)cc2)CC1 [BGJ398] | 75 ± 18 |
| O=c1ncccn1[C@@H]1O[C@H](CO)[C@@H](O)[C@H]1O [Zebularine] | 106 ± 9.4 |
| C[C@H]1CCC/C=C/[C@@H]2C[C@H](O)C[C@H]2[C@H](O)/C=C/C(=O)O1 [BrefeldinA] | 6.07 ± 0.93 |
| CS(=O)(=O)CCNCc1ccc(-c2ccc3ncnc(Nc4ccc(OCc5cccc(F)c5)c(Cl)c4)c3c2)o1 [Lapatinib] | 16.3 ± 2.1 |

tested on: ZR-75-1; assay: as above; settings: sgRNA knockout: sgNT, 10 nM
Protocol: as §1

| SMILES | relative cell number |
| --- | --- |
| O=C(c1cc(Cc2n[nH]c(=O)c3ccccc23)ccc1F)N1CCN(C(=O)C2CC2)CC1 [Olaparib] | 78.3 ± 13 |
| O=C(O)C(Cc1c[nH]c2ccccc12)N1C(=O)c2ccccc2C1=O (stereo not given) [RG108] | 94.8 ± 3.9 |
| CN(C)c1cc(NC(=O)CNC(C)(C)C)c(O)c2c1C[C@H]1C[C@H]3[C@H](N(C)C)C(O)=C(C(N)=O)C(=O)[C@@]3(O)C(O)=C1C2=O [Tigecycline] | 91.5 ± 11 |
| Nc1ccccc1NC(=O)c1ccc(CNC(=O)OCc2cccnc2)cc1 [Entinostat] | 75.3 ± 4.2 |
| Cn1c(CCCC(=O)O)nc2cc(N(CCCl)CCCl)ccc21 [Bendamustine] | 82.4 ± 11 |
| COc1cc2nc(N3CCCN(C)CC3)nc(NC3CCN(Cc4ccccc4)CC3)c2cc1OC | 102 ± 40 |
| COC(=O)/C=C/C(=O)OC [DimethylFumarate] | 95.9 ± 36 |
| CCN1CCN(c2ccc(Nc3cc(N(C)C(=O)Nc4c(Cl)c(OC)cc(OC)c4Cl)ncn3)cc2)CC1 [BGJ398] | 77.02 ± 0.32 |
| O=c1ncccn1[C@@H]1O[C@H](CO)[C@@H](O)[C@H]1O [Zebularine] | 84.7 ± 48 |
| C[C@H]1CCC/C=C/[C@@H]2C[C@H](O)C[C@H]2[C@H](O)/C=C/C(=O)O1 [BrefeldinA] | 86.8 ± 14 |
| CS(=O)(=O)CCNCc1ccc(-c2ccc3ncnc(Nc4ccc(OCc5cccc(F)c5)c(Cl)c4)c3c2)o1 [Lapatinib] | 112 ± 32 |
